Reference: EP2687213B1, “Solid forms comprising (+)-2-[1-(3-ethoxy-4-methoxyphenyl)-2-methylsulfonylethyl]-4-acetylaminoisoindoline-1,3-dione, compositions thereof, and uses thereof” (CELGENE CORPORATION, priority 2008, dated 2009)

Columns and labels:
[1] = test system: LPS-induced pulmonary neutrophilia; test: LPS-induced lung neutrophilia conscious ferret model; assay type: in vivo; details: threshold emetic dose divided by ED50 for pulmonary neutrophilia
Description: The conscious ferret model has been used to investigate anti-inflammatory, emetic and behavioral effects of PDE4 inhibitors when administered by the oral (p.o.) route. From these experiments, a therapeutic index (TI) for each PDE4 inhibitor may be determined. The TI has been calculated by dividing the threshold dose for causing emetic episodes and behavioral changes by the anti-inflammatory dose (dose that causes 50% inhibition of the LPS-induced neutrophilia). […]
Thirty minutes after p.o. dosing with compound or vehicle control, the ferrets were placed into sealed Perspex containers and exposed to an aerosol of LPS (100 µg/ml) for 10 minutes. […] Observation continued for a period of at least 2.5 hours post p.o. dosing and emetic episodes and behavioral changes were recorded. […]
The bronchoalveolar lavage (BAL) samples were centrifuged at 1,500 rpm for 5 minutes. […] From this, the total number of neutrophils in the BAL was determined.
• 1. % Inhibition of LPS-induced pulmonary neutrophilia. • 2. Emetic episodes - the number of vomits and retches were counted. • 3. […] Any behavioral changes were semi-quantified by applying a severity rating (mild, moderate or severe). • 4. The TI was calculated as the highest dose found to not cause emetic episodes divided by the lowest dose found to inhibit pulmonary neutrophilia by 50% or more.

[2] = biological target: T1, PDE6 from bovine retinal rod outer segments (Bos taurus, UniProt P11541+P23439); test: PDE6 enzyme assay; assay type: biochemical; details: from PDE inhibition data of Table 1
T1 construct: PDE6 from bovine retinal rod outer segments; from tissue; host or cells: bovine retinal rod outer segments
T1 sequence (P11541 2-856 limits assumed): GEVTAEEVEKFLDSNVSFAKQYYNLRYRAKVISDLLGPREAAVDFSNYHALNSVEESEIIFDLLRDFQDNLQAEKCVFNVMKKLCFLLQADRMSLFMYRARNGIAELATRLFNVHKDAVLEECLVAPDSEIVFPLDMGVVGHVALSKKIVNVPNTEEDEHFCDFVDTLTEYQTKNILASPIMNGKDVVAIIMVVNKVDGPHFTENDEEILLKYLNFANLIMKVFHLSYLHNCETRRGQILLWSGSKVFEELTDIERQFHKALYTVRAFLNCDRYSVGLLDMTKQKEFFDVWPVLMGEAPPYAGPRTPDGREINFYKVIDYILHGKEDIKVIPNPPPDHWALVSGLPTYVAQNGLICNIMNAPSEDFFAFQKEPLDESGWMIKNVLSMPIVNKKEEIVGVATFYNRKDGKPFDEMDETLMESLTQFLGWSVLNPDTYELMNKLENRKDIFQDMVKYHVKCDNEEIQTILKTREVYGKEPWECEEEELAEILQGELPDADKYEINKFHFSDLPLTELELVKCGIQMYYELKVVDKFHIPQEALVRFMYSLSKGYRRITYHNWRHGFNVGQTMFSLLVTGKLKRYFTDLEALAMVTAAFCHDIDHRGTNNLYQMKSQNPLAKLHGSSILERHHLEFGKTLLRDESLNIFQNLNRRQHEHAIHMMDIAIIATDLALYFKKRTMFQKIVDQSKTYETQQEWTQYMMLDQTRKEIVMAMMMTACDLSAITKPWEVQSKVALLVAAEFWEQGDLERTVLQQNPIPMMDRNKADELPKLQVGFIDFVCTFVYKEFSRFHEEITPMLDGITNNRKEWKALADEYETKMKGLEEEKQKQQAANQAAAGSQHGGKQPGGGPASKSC
T1 sequence (P23439 2-850 limits assumed): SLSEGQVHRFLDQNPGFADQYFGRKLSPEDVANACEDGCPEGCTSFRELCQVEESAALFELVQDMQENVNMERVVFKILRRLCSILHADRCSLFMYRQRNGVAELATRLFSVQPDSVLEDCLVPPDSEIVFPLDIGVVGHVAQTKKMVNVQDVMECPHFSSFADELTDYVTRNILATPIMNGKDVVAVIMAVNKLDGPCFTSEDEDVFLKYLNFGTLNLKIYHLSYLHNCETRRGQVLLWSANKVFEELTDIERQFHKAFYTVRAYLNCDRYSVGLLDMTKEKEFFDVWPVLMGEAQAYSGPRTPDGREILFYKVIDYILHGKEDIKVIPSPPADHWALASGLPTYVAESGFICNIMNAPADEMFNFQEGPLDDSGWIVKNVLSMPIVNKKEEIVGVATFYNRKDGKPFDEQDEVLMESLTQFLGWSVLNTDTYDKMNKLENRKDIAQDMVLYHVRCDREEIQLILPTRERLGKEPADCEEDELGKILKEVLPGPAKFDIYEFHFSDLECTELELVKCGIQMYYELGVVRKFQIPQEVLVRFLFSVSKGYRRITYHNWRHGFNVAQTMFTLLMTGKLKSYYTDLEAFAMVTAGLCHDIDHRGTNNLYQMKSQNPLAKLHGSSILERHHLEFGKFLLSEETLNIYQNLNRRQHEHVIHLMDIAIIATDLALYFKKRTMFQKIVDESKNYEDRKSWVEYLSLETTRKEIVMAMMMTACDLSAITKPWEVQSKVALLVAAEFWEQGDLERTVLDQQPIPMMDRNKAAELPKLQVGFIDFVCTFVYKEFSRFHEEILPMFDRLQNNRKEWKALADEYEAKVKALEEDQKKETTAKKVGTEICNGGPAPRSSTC

Q: Which Therapeutic index [1] does the source give for `CCOc1cc(C(CS(C)(=O)=O)N2C(=O)c3cccc(NC(C)=O)c3C2=O)ccc1OC` (single isomer, unassigned; (+)) [Compound A, (+)-2-[1-(3-ethoxy-4-methoxyphenyl)-2-methylsulfonylethyl]-4-acetylaminoisoindoline-1,3-dione] here?
A: 12

Q: And the “PDE Specificity Ratio PDE4/PDE6” value [2]?
A: >40000 fold
